The NIST ThermoML archive (doi:10.1016/j.jct.2005.03.019)
Numbers after ± are expanded uncertainties.

Experiment: xn = mol fraction of the nth substance listed
Settings: 101 kPa, Liquid, Vibrating tube method

## CC1COC(=O)O1 (configuration not stated) [4-methyl-1,3-dioxolan-2-one] + Cc1ccccc1
293.15 K, x2 = 0
  mass density: 1200.3 ± 0.1 kg/m3
293.15 K, x2 = 0.0578
  mass density: 1177.7 ± 0.1 kg/m3
293.15 K, x2 = 0.1279
  mass density: 1151 ± 0.1 kg/m3
293.15 K, x2 = 0.1735
  mass density: 1133.9 ± 0.1 kg/m3
293.15 K, x2 = 0.2387
  mass density: 1110 ± 0.1 kg/m3
293.15 K, x2 = 0.3248
  mass density: 1079.4 ± 0.2 kg/m3
293.15 K, x2 = 0.3891
  mass density: 1057.1 ± 0.2 kg/m3
293.15 K, x2 = 0.4398
  mass density: 1039.9 ± 0.2 kg/m3
293.15 K, x2 = 0.5179
  mass density: 1014 ± 0.2 kg/m3
293.15 K, x2 = 0.5621
  mass density: 999.7 ± 0.2 kg/m3
293.15 K, x2 = 0.6381
  mass density: 975.4 ± 0.1 kg/m3
293.15 K, x2 = 0.7139
  mass density: 951.8 ± 0.1 kg/m3
293.15 K, x2 = 0.7639
  mass density: 936.5 ± 0.1 kg/m3
293.15 K, x2 = 0.8247
  mass density: 918.2 ± 0.1 kg/m3
293.15 K, x2 = 0.8739
  mass density: 903.6 ± 0.1 kg/m3
293.15 K, x2 = 0.9376
  mass density: 884.9 ± 0.1 kg/m3
303.15 K, x2 = 0
  mass density: 1180.6 ± 0.1 kg/m3
303.15 K, x2 = 0.0516
  mass density: 1161 ± 0.1 kg/m3
303.15 K, x2 = 0.1211
  mass density: 1135.3 ± 0.1 kg/m3
303.15 K, x2 = 0.1782
  mass density: 1114.7 ± 0.1 kg/m3
303.15 K, x2 = 0.2298
  mass density: 1096.4 ± 0.1 kg/m3
303.15 K, x2 = 0.2971
  mass density: 1073 ± 0.1 kg/m3
303.15 K, x2 = 0.3565
  mass density: 1052.9 ± 0.1 kg/m3
303.15 K, x2 = 0.4134
  mass density: 1034 ± 0.2 kg/m3
303.15 K, x2 = 0.4681
  mass density: 1016.2 ± 0.2 kg/m3
303.15 K, x2 = 0.5371
  mass density: 994.2 ± 0.2 kg/m3
303.15 K, x2 = 0.6021
  mass density: 973.9 ± 0.1 kg/m3
303.15 K, x2 = 0.6629
  mass density: 955.4 ± 0.1 kg/m3
303.15 K, x2 = 0.7232
  mass density: 937.2 ± 0.1 kg/m3
303.15 K, x2 = 0.7832
  mass density: 919.5 ± 0.1 kg/m3
303.15 K, x2 = 0.8537
  mass density: 899.1 ± 0.1 kg/m3
303.15 K, x2 = 0.9245
  mass density: 878.8 ± 0.1 kg/m3
313.15 K, x2 = 0
  mass density: 1161.3 ± 0.1 kg/m3
313.15 K, x2 = 0.0467
  mass density: 1144.2 ± 0.1 kg/m3
313.15 K, x2 = 0.1274
  mass density: 1115.2 ± 0.1 kg/m3
313.15 K, x2 = 0.1832
  mass density: 1095.7 ± 0.1 kg/m3
313.15 K, x2 = 0.2572
  mass density: 1070.4 ± 0.1 kg/m3
313.15 K, x2 = 0.3291
  mass density: 1046.5 ± 0.1 kg/m3
313.15 K, x2 = 0.3938
  mass density: 1025.5 ± 0.2 kg/m3
313.15 K, x2 = 0.4531
  mass density: 1006.7 ± 0.2 kg/m3
313.15 K, x2 = 0.5291
  mass density: 983.2 ± 0.2 kg/m3
313.15 K, x2 = 0.5919
  mass density: 964.2 ± 0.1 kg/m3
313.15 K, x2 = 0.6472
  mass density: 947.7 ± 0.1 kg/m3
313.15 K, x2 = 0.6938
  mass density: 934.1 ± 0.1 kg/m3
313.15 K, x2 = 0.7524
  mass density: 917.2 ± 0.1 kg/m3
313.15 K, x2 = 0.8138
  mass density: 899.7 ± 0.1 kg/m3
313.15 K, x2 = 0.8623
  mass density: 886.1 ± 0.1 kg/m3
313.15 K, x2 = 0.9427
  mass density: 863.9 ± 0.1 kg/m3
323.15 K, x2 = 0
  mass density: 1142.4 ± 0.1 kg/m3
323.15 K, x2 = 0.0592
  mass density: 1121.4 ± 0.1 kg/m3
323.15 K, x2 = 0.114
  mass density: 1102.4 ± 0.1 kg/m3
323.15 K, x2 = 0.1734
  mass density: 1082.1 ± 0.1 kg/m3
323.15 K, x2 = 0.2378
  mass density: 1060.7 ± 0.1 kg/m3
323.15 K, x2 = 0.3139
  mass density: 1036 ± 0.1 kg/m3
323.15 K, x2 = 0.3681
  mass density: 1018.8 ± 0.1 kg/m3
323.15 K, x2 = 0.4244
  mass density: 1001.4 ± 0.2 kg/m3
323.15 K, x2 = 0.4711
  mass density: 987.1 ± 0.2 kg/m3
323.15 K, x2 = 0.5137
  mass density: 974.3 ± 0.2 kg/m3
323.15 K, x2 = 0.5828
  mass density: 954 ± 0.1 kg/m3
323.15 K, x2 = 0.6528
  mass density: 933.8 ± 0.1 kg/m3
323.15 K, x2 = 0.725
  mass density: 913.4 ± 0.1 kg/m3
323.15 K, x2 = 0.7941
  mass density: 894.2 ± 0.1 kg/m3
323.15 K, x2 = 0.8529
  mass density: 878.2 ± 0.1 kg/m3
323.15 K, x2 = 0.9172
  mass density: 860.9 ± 0.1 kg/m3
333.15 K, x2 = 0
  mass density: 1124 ± 0.1 kg/m3
333.15 K, x2 = 0.0545
  mass density: 1105.2 ± 0.1 kg/m3
333.15 K, x2 = 0.1287
  mass density: 1080.2 ± 0.1 kg/m3
333.15 K, x2 = 0.1831
  mass density: 1062.3 ± 0.1 kg/m3
333.15 K, x2 = 0.2417
  mass density: 1043.4 ± 0.1 kg/m3
333.15 K, x2 = 0.3274
  mass density: 1016.5 ± 0.1 kg/m3
333.15 K, x2 = 0.3818
  mass density: 999.9 ± 0.1 kg/m3
333.15 K, x2 = 0.4383
  mass density: 983 ± 0.2 kg/m3
333.15 K, x2 = 0.4819
  mass density: 970.1 ± 0.2 kg/m3
333.15 K, x2 = 0.5381
  mass density: 953.9 ± 0.2 kg/m3
333.15 K, x2 = 0.5821
  mass density: 941.3 ± 0.1 kg/m3
333.15 K, x2 = 0.6421
  mass density: 924.5 ± 0.1 kg/m3
333.15 K, x2 = 0.7138
  mass density: 904.8 ± 0.1 kg/m3
333.15 K, x2 = 0.7832
  mass density: 886.1 ± 0.1 kg/m3
333.15 K, x2 = 0.8527
  mass density: 867.7 ± 0.1 kg/m3
333.15 K, x2 = 0.9323
  mass density: 846.9 ± 0.1 kg/m3
343.15 K, x2 = 0
  mass density: 1106 ± 0.1 kg/m3
343.15 K, x2 = 0.0613
  mass density: 1085.5 ± 0.1 kg/m3
343.15 K, x2 = 0.1248
  mass density: 1064.7 ± 0.1 kg/m3
343.15 K, x2 = 0.1822
  mass density: 1046.3 ± 0.1 kg/m3
343.15 K, x2 = 0.2489
  mass density: 1025.5 ± 0.1 kg/m3
343.15 K, x2 = 0.3011
  mass density: 1009.5 ± 0.1 kg/m3
343.15 K, x2 = 0.3719
  mass density: 988.4 ± 0.1 kg/m3
343.15 K, x2 = 0.458
  mass density: 963.3 ± 0.2 kg/m3
343.15 K, x2 = 0.5043
  mass density: 950.2 ± 0.2 kg/m3
343.15 K, x2 = 0.5729
  mass density: 931.1 ± 0.1 kg/m3
343.15 K, x2 = 0.6429
  mass density: 912 ± 0.1 kg/m3
343.15 K, x2 = 0.7041
  mass density: 895.7 ± 0.1 kg/m3
343.15 K, x2 = 0.7634
  mass density: 880.1 ± 0.1 kg/m3
343.15 K, x2 = 0.8241
  mass density: 864.4 ± 0.1 kg/m3
343.15 K, x2 = 0.8721
  mass density: 852.2 ± 0.1 kg/m3
343.15 K, x2 = 0.9347
  mass density: 836.3 ± 0.1 kg/m3
353.15 K, x2 = 0
  mass density: 1088.4 ± 0.1 kg/m3
353.15 K, x2 = 0.0524
  mass density: 1071.3 ± 0.1 kg/m3
353.15 K, x2 = 0.1139
  mass density: 1051.6 ± 0.1 kg/m3
353.15 K, x2 = 0.1942
  mass density: 1026.6 ± 0.1 kg/m3
353.15 K, x2 = 0.2589
  mass density: 1007 ± 0.1 kg/m3
353.15 K, x2 = 0.3238
  mass density: 987.8 ± 0.1 kg/m3
353.15 K, x2 = 0.4035
  mass density: 964.9 ± 0.1 kg/m3
353.15 K, x2 = 0.4598
  mass density: 949.1 ± 0.2 kg/m3
353.15 K, x2 = 0.5243
  mass density: 931.4 ± 0.2 kg/m3
353.15 K, x2 = 0.5825
  mass density: 915.7 ± 0.1 kg/m3
353.15 K, x2 = 0.6359
  mass density: 901.6 ± 0.1 kg/m3
353.15 K, x2 = 0.693
  mass density: 886.8 ± 0.1 kg/m3
353.15 K, x2 = 0.7749
  mass density: 865.9 ± 0.1 kg/m3
353.15 K, x2 = 0.8371
  mass density: 850.3 ± 0.1 kg/m3
353.15 K, x2 = 0.8689
  mass density: 842.4 ± 0.1 kg/m3
353.15 K, x2 = 0.9432
  mass density: 824.2 ± 0.1 kg/m3
